According to ChEMBL document CHEMBL3244211, “5-Carboxamido-4-amino-3-isoxazolidone, and asparagine analogue” (J Med Chem, 1978):
Calls of active or inactive are those of the source. The calls are words filed in the database; no cut-off is given here.

Key:
L1210 = assay: Antitumor activity against mouse L1210 cells allografted in BDF1 mouse assessed as increase of host survival time at 100 mg/kg, ip; type: functional
P388 = assay: Antitumor activity against mouse P388 cells allografted in BDF1 mouse assessed as increase of host survival time at 200 mg/kg, ip qd for 9 days; type: functional
[1] = target: T1, Asparagine synthetase [glutamine-hydrolyzing] (Rattus norvegicus) (UniProt P49088); assay: Inhibition of asparagine synthetase in rat Novikoff hepatoma
T1 sequence (whole entry): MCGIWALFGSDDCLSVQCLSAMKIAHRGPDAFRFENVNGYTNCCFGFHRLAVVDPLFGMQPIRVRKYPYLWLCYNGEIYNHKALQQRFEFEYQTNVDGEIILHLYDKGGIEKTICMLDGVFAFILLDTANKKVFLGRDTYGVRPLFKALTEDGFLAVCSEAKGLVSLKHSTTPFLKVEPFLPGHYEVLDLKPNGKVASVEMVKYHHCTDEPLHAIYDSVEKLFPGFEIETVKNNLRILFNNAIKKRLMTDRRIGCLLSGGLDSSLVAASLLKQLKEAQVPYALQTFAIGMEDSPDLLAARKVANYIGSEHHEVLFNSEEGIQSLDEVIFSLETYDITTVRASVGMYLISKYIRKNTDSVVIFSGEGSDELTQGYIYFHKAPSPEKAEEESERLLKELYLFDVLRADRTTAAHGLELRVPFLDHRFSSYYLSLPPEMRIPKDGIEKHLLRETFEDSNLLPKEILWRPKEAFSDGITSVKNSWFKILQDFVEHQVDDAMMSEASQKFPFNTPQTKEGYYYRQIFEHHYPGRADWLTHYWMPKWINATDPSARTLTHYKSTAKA

Mus musculus = assay: Toxicity in mouse P388 cells allografted BDF1 mouse assessed as mortality at 200 mg/kg, ip qd for 9 days; type: organism-based; design: dose 200 mg/kg, route intraperitoneal; details: in vivo, 216 h

SMILES | Activity (L1210) | Activity (P388) | inhibition [1] | Activity (Mus musculus) | Activity (L1210; route intraperitoneal) [%] | T/C (P388; route intraperitoneal) [%]
NC(=O)[C@H]1ONC(=O)[C@@H]1N (relative stereo) | inactive | inactive | inactive | Non-toxic |  | 
O=C(NO)[C@H]1N[C@@H]1C(=O)NO (relative stereo) |  |  |  | Non-toxic | 13 | 128
